Results from patent publication US4528397A, “Aminocarboxylic acid derivatives” (Sanraku-Ocean Co., Ltd., priority 1982, dated 1985).

Experiments:
dipeptidase = biological target: T1, dipeptidase (Rattus norvegicus, UniProt P31430); experiment: In vitro inhibition of partially purified rat kidney dipeptidase (spectrophotometric); assay type: biochemical; details: pH 8.0, 37° C., substrate of Table 1 (glycyldehydrophenylalanine or PS-5) not stated; for inhibition at 100 µM: inhibitor 10^-4 M
T1 construct: from tissue; host or cells: rat kidney, microsome fraction
T1 sequence (P31430 17-410): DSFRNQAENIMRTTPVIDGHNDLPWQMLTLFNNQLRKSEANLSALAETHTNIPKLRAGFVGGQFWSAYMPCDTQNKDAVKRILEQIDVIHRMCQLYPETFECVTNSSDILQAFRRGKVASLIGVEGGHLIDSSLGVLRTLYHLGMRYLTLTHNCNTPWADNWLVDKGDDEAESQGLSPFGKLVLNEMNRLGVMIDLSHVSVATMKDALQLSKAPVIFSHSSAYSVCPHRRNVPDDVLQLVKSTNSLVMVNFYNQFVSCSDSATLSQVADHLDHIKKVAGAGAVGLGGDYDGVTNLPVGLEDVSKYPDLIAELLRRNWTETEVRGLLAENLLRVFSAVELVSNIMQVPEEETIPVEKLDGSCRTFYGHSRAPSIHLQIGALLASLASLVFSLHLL
Procedure: (1) Purification of dipeptidase
Rats were sacrificed by decapitation, and about 12 g of fresh kidneys were collected. A microsome fraction was obtained by the Hogboom's subcellular fractionating method used on differential centrifugation (Methods in Enzymology, Vol. 1, pages 16-19, Academic Press, New York, 1955). The microsome fraction was treated with 400 μg/ml of trypsin at 0° C. for 16 hours, and then supercentrifugally fractionated at 10^5 G for 60 minutes at 0° C.
The resulting precipitate was suspended in 20 ml of tris-HCl buffer (20 mM, pH 7.6) containing a detergent (0.4% Triton X-100), and then supercentrifugally fractionated at 10^5 G for 60 minutes at 0° C. The supernatant liquid was charged onto a column (15×100 mm) of Sephadex A-50 (Cl-form), and the column was eluted with tris-HCl buffer (20 mM, pH 7.0) containing a detergent (0.4% Triton X-100) with a sodium chloride concentration linear gradient from 0 to 0.5M.
The active fractions were concentrated with polyethylene glycol 4000, and then successively purified by a Sephadex G-150 (25×900 mm) column and a Sephadex G-200 (25×900 mm) column using the same tris-HCl buffer as above to obtain a partially purified sample of the dipeptidase.
(2) Measurement of inhibitory activity
Fifty microliters of the enzyme obtained as above was preincubated together with 30 μl of an inhibitor solution in a cuvette at 37° C. for 5 minutes. Then, 2.82 ml of a solution of glycyldehydrophenylalanine (5.3×10^-5 M) preincubated to 37° C. as a substrate in tris-HCl (0.1M, pH 8.0) was added, and the reaction was started. The reaction was carried out in a cuvette of a Hitachi spectrophotometer equipped with a constant temperature (37° C.) device, and by a recorder, a decrease in the absorbance of the reaction mixture at a wavelength of 275 nm during 5 minutes was measured.
The same experiment as above was carried out using a tris-HCl (pH 8.0) solution of antibiotic PS-5 (1.03 mM) as a substrate, and a decrease in the absorbance of the reaction mixture at a wavelength of 300 nm during 5 minutes was measured.
The percent inhibition and ID50 at a predetermined inhibitor concentration were determined from the measured values obtained as above and that obtained in a control in which no inhibitor was used.

[1] = Coadministration of AEG and antibiotic PS-5: plasma concentration of antibiotic PS-5; assay type: in vivo, mice (male, ddY); details: for concentration at 5 min / concentration at 0.25 h / concentration at 0.5 h: mouse, plasma, sc, 2 mg
Procedure: (§1) Coadministration of N-(2-aminoethyl)glycine and antibiiotic PS-5
(§2) To groups of 5 mice each (male, ddY, aged 5 weeks) was orally administered 0.25 ml (20 mg/mouse) of an aqueous solution of N-(2-aminoethyl)glycine (AEG) in a concentration of 80 mg/ml (the solutions had been adjusted to pH 7.5 with 1N HCl). The same volume of pure water was administered to a control group. Thirty minutes later, 0.25 ml of a solution of antibiotic PS-5 Na salt (8 mg/ml) in M/100 PBS (pH 7.0) was subcutaneously administered. Blood was taken from the retroorbital sinus at various time intervals using a heparinized capillary (a thermohematocrit capiratry tube, total length 75 mm, outside diameter 1.45-1.65 mm). One end of the tube was sealed with IATROSEAL® (Iatron Laboratries) and the plasma was separated by centrifugal separation (3000 rpm, 10 minutes). Blood sampling was carried out a total of six times at 0 time (immediately before administration of the antibiotic PS-5) and 5 minutes, 15 minutes, 30 minutes, 60 minutes and 90 minutes after the administration of the antibiotic PS-5. The concentration of the antibiotic PS-5 in the plasma was disc-assayed against Comamonas terrigena B-996.

[2] = Coadministration of AEG and antibiotic PS-5: urinary recovery of antibiotic PS-5; assay type: in vivo, mice (male, ddY); details: mouse, urine, sc, 2 mg, 0-3 hrs
Procedure: as §1
as §2, with “The concentration of the antibiotic PS-5 in the plasma was disc-assayed against Comamonas terrigena B-996.” left out
On the other hand, the whole urine of the mice was taken 3 hours after the administration of the antibiotic PS-5, and the concentration of the antibiotic PS-5 in the collected whole urine was assayed by the same method as above. The mean concentrations for five mice was calculated.

Structure (SMILES): NCCNCC(=O)O [Compound 1, N-(2-aminoethyl)glycine]
- inhibition at 100 µM (dipeptidase): 86%

Structure (SMILES): NCCSCC(=O)O [Compound 2, (2-aminoethyl)thioacetic acid]
- inhibition at 100 µM (dipeptidase): 2%

Structure (SMILES): C[C@H](NCCN)C(=O)O [Compound 3, N-(2-aminoethyl)-L-alanine]
- inhibition at 100 µM (dipeptidase): 15.6%

Structure (SMILES): NCCN[C@@H](Cc1ccccc1)C(=O)O [Compound 4, N-(2-aminoethyl)-L-phenylalanine]
- inhibition at 100 µM (dipeptidase): 38%

Structure (SMILES): N[C@H](CNCC(=O)O)Cc1ccccc1 [Compound 5, (S)-[N-(2-amino-2-benzyl)ethyl]glycine]
- inhibition at 100 µM (dipeptidase): 85%
- IC50 (dipeptidase; read-out: ID50 (the source's name)): 22 µM

Structure (SMILES): C[C@H](N)CNCC(=O)O [Compound 6, (S)-N-(2-aminopropyl)glycine]
- inhibition at 100 µM (dipeptidase): 42.4%

Structure (SMILES): CC[C@H]1C(=O)N2C(C(=O)O)=C(SCCNC(C)=O)C[C@H]12 [antibiotic PS-5]
- Concentration of antibiotic PS-5 in the plasma ([1]; AEG administered group (AEG 20 mg/mouse oral, 30 min before PS-5 s.c.), 0 min (immediately before PS-5)): 0 ng/mL
- Concentration of antibiotic PS-5 in the plasma ([1]; AEG administered group, 60 min after PS-5 s.c.): 0 ng/mL
- Concentration of antibiotic PS-5 in the plasma ([1]; AEG administered group, 90 min after PS-5 s.c.): 0 ng/mL
- Concentration of antibiotic PS-5 in the plasma ([1]; Control group (water instead of AEG, then PS-5 s.c.), 0 min (immediately before PS-5)): 0 ng/mL
- Concentration of antibiotic PS-5 in the plasma ([1]; Control group (water, PS-5 s.c.), 60 min): 0 ng/mL
- Concentration of antibiotic PS-5 in the plasma ([1]; Control group (water, PS-5 s.c.), 90 min): 0 ng/mL
- concentration at 5 min ([1]; AEG administered group, 5 min after PS-5 s.c.): 49600 ± 3700 ng/mL
- concentration at 0.25 h ([1]; AEG administered group, 15 min after PS-5 s.c.): 21700 ± 2600 ng/mL
- concentration at 0.5 h ([1]; AEG administered group, 30 min after PS-5 s.c.): 2300 ± 500 ng/mL
- concentration at 5 min ([1]; Control group (water, PS-5 s.c.), 5 min): 52000 ± 4600 ng/mL
- concentration at 0.25 h ([1]; Control group (water, PS-5 s.c.), 15 min): 15200 ± 1900 ng/mL
- concentration at 0.5 h ([1]; Control group (water, PS-5 s.c.), 30 min): 1000 ± 100 ng/mL
- dose excreted at 3 h ([2]; AEG administered group (AEG 20 mg/mouse oral, PS-5 s.c.)): 13.2%
- dose excreted at 3 h ([2]; Control group (water, PS-5 s.c.)): 0%
